≈ marks a conversion by molar mass, not a printed value.
Assay: Cytotoxicity against human 9KB cells
Assay type: functional
Conditions: read-out: ED50 (the source's name)

C=C1C(=O)O[C@H]2[C@H]1[C@@H](OC(=O)[C@](C)(O)CCl)CC(=C)[C@@H]1C[C@H](O)[C@](O)(CCl)[C@H]21 [CENTAUREPENSIN]
EC50: 1.7 µg/mL (≈ 3.91 µM)
